The values below come from patent publication US9545447B2, “Polymer-drug systems” (THE TEXAS A&M UNIVERSITY SYSTEM, priority 2013, dated 2017).

Read-outs that look alike come from different tables or passages of the source.

Series [1] has as its system KB cells, a human nasal pharyngeal cancer cell line. As to the kind of experiment: Cell viability (WST-1), KB cells. In kind it is cell-based. As to conditions: Table 1, 72 h, PTX as free PTX. As for the experimental part: Polymer paclitaxel and free paclitaxel were tested in KB cells, a human nasal pharyngeal cancer cell line and A549 cells, a human lung carcinoma cell line. KB and A549 cells (ATCC, Manassas, Va.) were maintained in monolayer cultures in folate free RPMI (Life Technologies, Carlsbad, Calif.) and F-12K media (Mediatech, Manassas, Va.) respectively, supplemented with 10% fetal bovine serum and penicillin/streptomycin antibiotics. For screening purposes 2,500 cells in 100 μL of complete cell culture media were plated in a 96 well plate (Corning, Lowell, Mass.) in triplicates and were then incubated for 24 h in a humidified CO2 cell culture incubator maintained at 37° C. Serial dilutions of polymer-paclitaxel conjugates and paclitaxel were prepared in PBS and added to cells in a volume of 10 μL. The cells were either incubated for a short period of 2 h or for longer continuous incubation of 72 h. After 2 h incubation, the media was replaced with 110 μL of fresh complete RPMI. Cell viability was assessed by using a colorimetric WST-1 cell proliferation kit (Roche, Indianapolis, Ind.) and following manufacturer's instructions. Cell viability was calculated as a percentage of the control cells treated with no drugs. […]
Background: Tetrazolium assays rely on reduction of a dye to a coloured formazan, in cell work by metabolically active cells.

Series [2] has as its system RAW 264.7 mouse macrophages. The series can be described thus: Cytotoxicity assay (MTS), RAW 264.7. In kind it is cell-based. As for the experimental part: (§1) Human ovarian adenocarcinoma cells (OVCAR-3) (5×10^3 cells/well) and RAW 264.7 mouse macrophages (2×10^4 cells/well) were plated in 96-well plate in RPMI-1640 medium and Dulbecco's Modified Eagle's Medium (DMEM) (20% and 10% fetal bovine serum, for the OVCAR-3 and RAW 264.7, respectively and 1% penicillin/streptomycin). […] The paclitaxel conjugate was prepared as described previously, and the Taxol®-mimicking formulation was prepared in similar composition to Taxol® (i.e. Cremophor-EL and ethanol, 1:1 v/v). For each well, 20 μL of every formulation was added to 100 μL of the medium. The cells were incubated with the formulations for 72 h and washed once with phosphate-buffered saline (PBS) and 100 μL of the complete medium was added to the cells. 20 μL of the MTS combined reagent was added to each well (Cell Titer 96® Aqueous Non-Radioactive Cell Proliferation Assay, Promega Co., Madison, Wis.). […] Absorbance was measured at 490 nm using SpectraMax M5 (Molecular Devices Co., Sunnyvale, Calif.). The cell viability was calculated based on the relative absorbance to the control untreated cells. The IC50 values were calculated using GraphPad Prism four-parameter fit, considering the 0% and 100% viabilities correspond to the medium control (no cells) and cells-treated with PBS, respectively.

A short description of series [3]: Saturate concentration of PTX in PBS buffer by UV. It counts as physicochemical. Here is the method: The saturate concentration is around 1.7 ug/mL. PTX concentrations as low as 6.25 ng/mL were detected.
For series [4], the system named is Human ovarian adenocarcinoma cells (OVCAR-3). As to the kind of experiment: Cytotoxicity assay (MTS), OVCAR-3. In kind it is cell-based. Here is the method:
as §1

For the molecule `CC(=O)O[C@H]1C(=O)[C@@]2(C)[C@H]([C@H](OC(=O)c3ccccc3)[C@]3(O)C[C@H](OC(=O)[C@H](O)[C@@H](NC(=O)c4ccccc4)c4ccccc4)C(C)=C1C3(C)C)[C@]1(OC(C)=O)CO[C@@H]1C[C@@H]2O` [PTX, paclitaxel], the concentration for half-maximal inhibition (IC50) (as a rule, the concentration that inhibits the measured activity by half) turned out to be 0.0044 µM in series [1]; 0.044 µM in series [2] (RAW264.7, Table 1, 72 h, PTX as Taxol®-mimicking formulation (Cremophor-EL and ethanol, 1:1 v/v), read-out: IC50 (μM) RAW 264.7); 0.04 µM in series [2] (RAW264.7, Table 2, 72 hours, PTX as Taxol-mimicking formulation, read-out: IC50 (μM) in RAW 264.7); 0.007 µM in series [4] (Table 1, 72 h, PTX as Taxol®-mimicking formulation (Cremophor-EL and ethanol, 1:1 v/v), read-out: IC50 (μM) OVCAR-3); 0.007 µM in series [4] (Table 2, 72 hours, PTX as Taxol-mimicking formulation, read-out: IC50 (μM)in OVCAR-3). In addition, the “saturate concentration of PTX” value in series [3] is given as “around 1.7 ug/mL”.
